Source: US11028088B2, “Modulators of BTK proteolysis and methods of use” (Yale University, priority 2018, dated 2021)
Entries after “also recorded” stand apart in the source; their conditions may differ.

Tests used:
HER3 = molecular target: T1, HER3 (Homo sapiens, UniProt P21860); assay: HER3/ERBB3 degradation (western blot, OVCAR8 cells); assay type: cell-based
T1 construct: endogenous in cells; host or cells: OVCAR8
In short: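 OVCAR8 cells received PROTAC from a 1000× stock for exposures >16 h, or a 2× stock for shorter ones. Lysates (Tris pH 8.0, deoxycholate, Triton X-100, protease/phosphatase inhibitors), 30 μg protein, were run on SDS-PAGE and immunoblotted overnight at 4 °C with ECL chemiluminescent detection and densitometric quantification.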

ITK = molecular target: T2, ITK (Homo sapiens, UniProt Q08881); assay: ITK degradation in Jurkat cells (immunoblot); assay type: cell-based; design: host or cells: Jurkat; settings: increasing concentrations
T2 sequence (Q08881 1-620): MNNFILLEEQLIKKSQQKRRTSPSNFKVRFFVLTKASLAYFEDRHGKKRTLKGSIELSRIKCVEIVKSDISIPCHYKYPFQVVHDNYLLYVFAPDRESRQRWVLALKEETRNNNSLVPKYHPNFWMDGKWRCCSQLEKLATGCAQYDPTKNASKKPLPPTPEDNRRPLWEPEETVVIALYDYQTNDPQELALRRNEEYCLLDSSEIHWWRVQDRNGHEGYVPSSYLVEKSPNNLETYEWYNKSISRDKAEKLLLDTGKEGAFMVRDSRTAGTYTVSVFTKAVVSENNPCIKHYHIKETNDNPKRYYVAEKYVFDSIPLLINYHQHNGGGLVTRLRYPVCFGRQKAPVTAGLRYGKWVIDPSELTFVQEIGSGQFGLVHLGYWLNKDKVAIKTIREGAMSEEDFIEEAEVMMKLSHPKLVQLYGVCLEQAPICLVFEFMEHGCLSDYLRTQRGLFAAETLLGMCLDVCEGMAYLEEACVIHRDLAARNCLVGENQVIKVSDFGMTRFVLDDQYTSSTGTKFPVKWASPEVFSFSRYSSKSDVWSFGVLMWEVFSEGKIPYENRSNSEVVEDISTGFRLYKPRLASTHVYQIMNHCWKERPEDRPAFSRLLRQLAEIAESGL
Method: FIG. 3E illustrates ITK levels after Jurkat cells (Acute T-cell leukemia) were treated with increasing concentrations of Compound 102.
NAMALWA and Jurkat cell lines were purchased from ATCC and cultured according to supplier guidelines at 37° C. 5% CO2 in RPMI 1640 (Gibco) supplemented with 10% fetal bovine serum and 1× penicillin-streptomycin. Wild-type and C481S BTK XLA cell lines were cultured as previously described (39). Written, informed consent was obtained prior to the collection of cells from CLL patients using the IWCLL2008 criteria. Isolation of mononuclear cells from peripheral blood was prepared using density gradient centrifugation. B-cells were then negatively selected ([…] Technologies). Cells were then cultured at 1×10^7 cells/mL in RPMI 1640 (Gibco) with supplementation of 10% fetal bovine serum (VWR), 100 μg/mL streptomycin (Gibco), 100 U/mL penicillin-G (Gibco), and 2 mmol/L L-glutamine (Gibco). […]
In various embodiments, treatment with PROTAC was performed in one of two ways: 1) For experiments involving >16 h exposure to compound, a 1000× stock was added to cells followed by gentle agitation; 2) For shorter treatments, a 2× stock was added to an equal volume of cells to ensure uniform drug exposure. […] Lysates were spun at 15,000×g for 10 min at 4° C. and supernatant was quantified for total protein content using the Pierce BCA Protein Assay (Thermo Fisher Scientific). […]

BTK = BTK (Homo sapiens, UniProt Q06187); assay: BTK degradation in NAMALWA cells (immunoblot); assay type: cell-based; design: host or cells: NAMALWA; settings: NAMALWA cells
BTK, sequence (Q06187 whole entry): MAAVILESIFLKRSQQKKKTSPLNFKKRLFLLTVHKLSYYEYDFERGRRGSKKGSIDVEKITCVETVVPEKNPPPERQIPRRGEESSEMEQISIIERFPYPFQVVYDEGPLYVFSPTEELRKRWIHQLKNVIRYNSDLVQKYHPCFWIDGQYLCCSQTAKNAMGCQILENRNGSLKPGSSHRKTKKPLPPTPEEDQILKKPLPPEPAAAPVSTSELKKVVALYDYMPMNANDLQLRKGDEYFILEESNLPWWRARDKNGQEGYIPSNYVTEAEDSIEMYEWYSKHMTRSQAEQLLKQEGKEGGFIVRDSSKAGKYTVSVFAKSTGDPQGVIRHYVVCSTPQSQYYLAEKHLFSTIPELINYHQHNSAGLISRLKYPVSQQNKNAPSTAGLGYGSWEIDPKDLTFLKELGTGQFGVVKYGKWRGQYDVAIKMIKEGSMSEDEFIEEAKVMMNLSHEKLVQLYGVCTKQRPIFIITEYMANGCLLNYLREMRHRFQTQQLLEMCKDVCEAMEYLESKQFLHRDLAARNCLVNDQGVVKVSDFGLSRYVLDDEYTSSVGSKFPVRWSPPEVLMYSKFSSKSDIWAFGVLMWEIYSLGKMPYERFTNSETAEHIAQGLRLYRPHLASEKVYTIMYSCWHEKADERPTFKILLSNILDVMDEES
In short: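 NAMALWA cells were cultured at 37° C in 5% CO2, and lysates were clarified and normalised for total protein by BCA. BTK was detected by immunoblot with primary antibodies at 1:1,000 and HRP secondaries at 1:10,000, using ECL chemiluminescence and densitometric band quantification.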

wild-type BTK = wild-type BTK (Homo sapiens, UniProt Q06187); assay: BTK and pBTK in primary CLL patient cells at baseline (before ibrutinib relapse); settings: baseline primary patient sample
wild-type BTK, sequence (Q06187 whole entry): as above
Method: The cell suspension was kept on ice and agitated every 10 minutes for 30 minutes, followed by centrifugation for 10 minutes at 4° C. The supernatant was then collected and frozen at −80° C. until quantification. Protein quantification was performed for each supernatant using the BCA method (Thermo Scientific). Protein from each sample was added to 2× or 6× Laemmli's Sample buffer as previously described (41). 50 μg of each sample and a protein molecular weight marker were loaded onto 10% polyacrylamide gels and electrophoresed. Transfer of the proteins and blocking of membranes were performed as previously described (40).
The blots were washed with TBS-T (Tris-buffered saline-0.05% Tween) three times for 10 minutes with constant agitation, then incubated with HRP-conjugated anti-rabbit or anti-mouse IgG (Santa Cruz Biotechnologies) diluted 1:5,000 in Blotto for 2 hours at 4° C. with constant agitation. Prior to development, the blots were again washed with TBS-T three times for 10 minutes with constant agitation. Blots were developed using chemiluminescent substrate (WesternBright by Advansta or SuperSignal by ThermoScientific) and X-ray film (GeneMate) was used to perform autoradiography. Quantification was performed on the protein bands using computer densitometry (AlphaView software).

T1 sequence (P21860 20-1342): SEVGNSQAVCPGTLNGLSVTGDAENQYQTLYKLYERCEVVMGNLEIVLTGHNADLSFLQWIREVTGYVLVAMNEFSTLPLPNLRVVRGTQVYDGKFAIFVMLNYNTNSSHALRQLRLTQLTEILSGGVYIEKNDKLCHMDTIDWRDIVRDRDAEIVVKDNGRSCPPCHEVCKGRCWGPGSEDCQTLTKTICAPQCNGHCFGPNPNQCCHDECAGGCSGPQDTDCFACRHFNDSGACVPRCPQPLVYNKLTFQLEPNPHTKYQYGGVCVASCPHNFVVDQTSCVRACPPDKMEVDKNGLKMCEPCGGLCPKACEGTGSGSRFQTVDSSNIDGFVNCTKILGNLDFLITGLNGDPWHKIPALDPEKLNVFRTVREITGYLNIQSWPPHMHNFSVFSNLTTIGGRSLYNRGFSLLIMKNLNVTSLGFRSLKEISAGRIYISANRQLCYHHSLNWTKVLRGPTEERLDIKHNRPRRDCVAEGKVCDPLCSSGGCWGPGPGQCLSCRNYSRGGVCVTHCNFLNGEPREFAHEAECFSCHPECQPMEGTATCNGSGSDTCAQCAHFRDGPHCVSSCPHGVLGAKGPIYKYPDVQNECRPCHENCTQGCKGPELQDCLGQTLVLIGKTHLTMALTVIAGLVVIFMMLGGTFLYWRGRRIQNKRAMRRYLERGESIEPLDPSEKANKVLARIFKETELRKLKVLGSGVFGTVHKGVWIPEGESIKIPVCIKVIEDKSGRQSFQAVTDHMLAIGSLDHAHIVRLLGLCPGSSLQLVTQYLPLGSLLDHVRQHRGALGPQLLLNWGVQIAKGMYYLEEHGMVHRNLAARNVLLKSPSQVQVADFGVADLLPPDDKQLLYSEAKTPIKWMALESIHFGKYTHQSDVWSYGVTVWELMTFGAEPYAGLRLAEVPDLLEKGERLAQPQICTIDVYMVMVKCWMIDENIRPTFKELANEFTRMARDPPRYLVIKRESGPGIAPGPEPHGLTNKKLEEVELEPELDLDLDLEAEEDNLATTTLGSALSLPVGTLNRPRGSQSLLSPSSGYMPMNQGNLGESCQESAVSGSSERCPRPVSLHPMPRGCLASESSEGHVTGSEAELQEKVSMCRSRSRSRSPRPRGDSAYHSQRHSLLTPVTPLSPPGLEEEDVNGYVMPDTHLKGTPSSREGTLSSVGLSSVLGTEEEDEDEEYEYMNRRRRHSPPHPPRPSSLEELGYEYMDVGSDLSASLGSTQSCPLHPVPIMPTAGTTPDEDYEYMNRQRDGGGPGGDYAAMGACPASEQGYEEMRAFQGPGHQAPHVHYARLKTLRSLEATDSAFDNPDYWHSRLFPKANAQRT

- HER3 Degradation (HER3): No
- time at which BTK is fully degraded (BTK; 250 nM): 4 h
- time after which half of the total BTK is degraded (BTK; 250 nM, vs matched vehicle-treated time point, exponential fit): approximately 50 minutes
- BTK degradation after pre-treatment with MLN-4924 (BTK; MLN-4924 1 μM 2.5 h, then 250 nM PROTAC 4 h): rescue of BTK levels
- DC50 (BTK; concentration needed to degrade 50% of the total pool of BTK, read-out: DC50): 9.1 nM
- BTK degradation after pre-treatment with excess ibrutinib (BTK; ibrutinib 25 μM 2.5 h, then 250 nM PROTAC 4 h): rescued BTK levels
- Max (BTK; maximal BTK degradation, at 250 nM): >99%
- BTK degradation after pre-treatment with excess pomalidomide (BTK; pomalidomide 25 μM 2.5 h, then 250 nM PROTAC 4 h): rescued BTK levels
- degradation of wild-type BTK (wild-type BTK; 1 μM 24 h): able to degrade
Compound: Nc1ncnc2c1c(-c1ccc(Oc3ccccc3)cc1)nn2C1CCN(CCOCCOCC(=O)Nc2ccc3c(c2)C(=O)N(C2CCC(=O)NC2=O)C3=O)CC1 (centres unmarked) [Compound 102, 2-[2-[2-[4-[4-amino-3-(4-phenoxyphenyl)pyrazolo[3,4-d]pyrimidin-1-yl]-1-piperidyl]ethoxy]ethoxy]-N-[2-(2,6-dioxo-3-piperidyl)-1,3-dioxo-isoindolin-5-yl]acetamide]
- ERBB3 degradation (HER3; OVCAR8 cells): did not lead to ERBB3 degradation; also recorded: no significant degradation
- ITK degradation (ITK): no significant degradation of ITK was observed
- BTK degradation after pre-treatment with epoxomicin (BTK; epoxomicin 1 μM 2.5 h, then 250 nM PROTAC 4 h): rescue of BTK levels; also recorded: did not result in BTK degradation
- hook-effect (increase in BTK levels at high PROTAC concentration) (BTK; up to 2.5 μM, 24 h): without observation and No and no significant increases in BTK levels and (No
- abrogation of BTK signaling (pBTK) (wild-type BTK; 1 μM): showed efficacy in abrogating BTK signaling
